In ChEMBL document CHEMBL1201862, “PubChem BioAssay data set” (2004):
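Step 1: Grow cells in 96-well plates. Step 2: Expose to compound for 48 hours at 5 concentrations. Step 3: Interpolate endpoints linearly; if unreached, use highest concentration. At the GI50, growth is halved.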 The source made the active and inactive calls. Cut-off read from the data, not from the text of the source: active = GI50 up to about 1.1 µM and inactive = higher.

Assays:
Experiment in all cases: inhibition of tumour cell growth, NCI panel, 48 h
A549 = system: A549
IGROV-1 = system: IGROV-1
HCT-116 = system: HCT-116
MCF7 = system: MCF7
TK-10 = system: TK-10
HCC 2998 = system: HCC 2998
HOP-92 = system: HOP-92
SF-539 = system: SF-539
SR = system: SR
M14 = system: M14
HT-29 = system: HT-29
786-0 = system: 786-0
HL-60 = system: HL-60
NCI-H460 = system: NCI-H460
MDA-MB-435 = system: MDA-MB-435
SK-MEL-2 = system: SK-MEL-2
HOP-62 = system: HOP-62
OVCAR-5 = system: OVCAR-5
SK-MEL-5 = system: SK-MEL-5
RXF 393 = system: RXF 393
UO-31 = system: UO-31
NCI-H226 = system: NCI-H226
A498 = system: A498
OVCAR-4 = system: OVCAR-4
MDA-MB-231 = system: MDA-MB-231
COLO 205 = system: COLO 205
NCI/ADR-RES = system: NCI/ADR-RES
MOLT-4 = system: MOLT-4
Malme-3M = system: Malme-3M
PC-3 = system: PC-3
SK-OV-3 = system: SK-OV-3
NCI-H522 = system: NCI-H522
RPMI-8226 = system: RPMI-8226
CCRF-CEM = system: CCRF-CEM
LOX IMVI = system: LOX IMVI
SF-295 = system: SF-295
OVCAR-8 = system: OVCAR-8
SW-620 = system: SW-620
NCI-H23 = system: NCI-H23
CAKI-1 = system: CAKI-1
UACC-257 = system: UACC-257
HCT-15 = system: HCT-15
OVCAR-3 = system: OVCAR-3
K562 = system: K562
SNB-19 = system: SNB-19
U-251 = system: U-251
SK-MEL-28 = system: SK-MEL-28
EKVX = system: EKVX
ACHN = system: ACHN

**Q.** Which GI50 (A549) does the source give for `O=c1oc(C(C(F)(F)F)C(F)(F)F)nc2ccccc12` here?
**A.** > 100 µM (inactive)

**Q.** And the GI50 (IGROV-1)?
**A.** > 100 µM (inactive)

**Q.** What about the GI50 (HCT-116) of the same compound?
**A.** > 100 µM (inactive)

**Q.** And the GI50 (MCF7)?
**A.** > 100 µM (inactive)

**Q.** And the GI50 (TK-10)?
**A.** > 100 µM (inactive)

**Q.** What about the GI50 (HCC 2998) of the same compound?
**A.** > 100 µM (inactive)

**Q.** What about the GI50 (HOP-92) of the same compound?
**A.** > 100 µM (inactive)

**Q.** What about the GI50 (SF-539) of the same compound?
**A.** > 100 µM (inactive)

**Q.** What about the GI50 (SR) of the same compound?
**A.** > 100 µM (inactive)

**Q.** What about the GI50 (M14) of the same compound?
**A.** > 100 µM (inactive)

**Q.** What about the GI50 (HT-29) of the same compound?
**A.** > 100 µM (inactive)

**Q.** What about the GI50 (786-0) of the same compound?
**A.** > 100 µM (inactive)

**Q.** What about the GI50 (HL-60) of the same compound?
**A.** > 100 µM (inactive)

**Q.** And the GI50 (NCI-H460)?
**A.** > 100 µM (inactive)

**Q.** What about the GI50 (MDA-MB-435) of the same compound?
**A.** > 100 µM (inactive)

**Q.** What about the GI50 (SK-MEL-2) of the same compound?
**A.** > 100 µM (inactive)

**Q.** And the GI50 (HOP-62)?
**A.** > 100 µM (inactive)

**Q.** What about the GI50 (OVCAR-5) of the same compound?
**A.** > 100 µM (inactive)

**Q.** And the GI50 (SK-MEL-5)?
**A.** > 100 µM (inactive)

**Q.** What about the GI50 (RXF 393) of the same compound?
**A.** > 100 µM (inactive)

**Q.** And the GI50 (UO-31)?
**A.** > 100 µM (inactive)

**Q.** And the GI50 (NCI-H226)?
**A.** > 100 µM (inactive)

**Q.** And the GI50 (A498)?
**A.** > 100 µM (inactive)

**Q.** And the GI50 (OVCAR-4)?
**A.** > 100 µM (inactive)

**Q.** And the GI50 (MDA-MB-231)?
**A.** > 100 µM (inactive)

**Q.** What about the GI50 (COLO 205) of the same compound?
**A.** > 100 µM (inactive)

**Q.** What about the GI50 (NCI/ADR-RES) of the same compound?
**A.** > 100 µM (inactive)

**Q.** And the GI50 (MOLT-4)?
**A.** > 100 µM (inactive)

**Q.** What about the GI50 (Malme-3M) of the same compound?
**A.** > 100 µM (inactive)

**Q.** And the GI50 (PC-3)?
**A.** > 100 µM (inactive)

**Q.** And the GI50 (SK-OV-3)?
**A.** > 100 µM (inactive)

**Q.** And the GI50 (NCI-H522)?
**A.** > 100 µM (inactive)

**Q.** And the GI50 (RPMI-8226)?
**A.** > 100 µM (inactive)

**Q.** And the GI50 (CCRF-CEM)?
**A.** > 100 µM (inactive)

**Q.** What about the GI50 (LOX IMVI) of the same compound?
**A.** > 100 µM (inactive)

**Q.** What about the GI50 (SF-295) of the same compound?
**A.** > 100 µM (inactive)

**Q.** What about the GI50 (OVCAR-8) of the same compound?
**A.** > 100 µM (inactive)

**Q.** What about the GI50 (SW-620) of the same compound?
**A.** > 100 µM (inactive)

**Q.** What about the GI50 (NCI-H23) of the same compound?
**A.** > 100 µM (inactive)

**Q.** What about the GI50 (CAKI-1) of the same compound?
**A.** > 100 µM (inactive)

**Q.** And the GI50 (UACC-257)?
**A.** > 100 µM (inactive)

**Q.** And the GI50 (HCT-15)?
**A.** > 100 µM

**Q.** And the GI50 (OVCAR-3)?
**A.** > 100 µM (inactive)

**Q.** And the GI50 (K562)?
**A.** > 100 µM (inactive)

**Q.** And the GI50 (SNB-19)?
**A.** > 100 µM (inactive)

**Q.** What about the GI50 (U-251) of the same compound?
**A.** > 100 µM (inactive)

**Q.** And the GI50 (SK-MEL-28)?
**A.** > 100 µM (inactive)

**Q.** What about the GI50 (EKVX) of the same compound?
**A.** > 100 µM (inactive)

**Q.** And the GI50 (ACHN)?
**A.** > 100 µM (inactive)
